Measured values taken from PMC8234864, “Early Effects of the Soluble Amyloid β25-35 Peptide in Rat Cortical Neurons: Modulation of Signal Transduction Mediated by Adenosine and Group I Metabotropic Glutamate Receptors” (International Journal of Molecular Sciences, 2021).
Where no end group is shown, it is not given here.

Tests used:
CREB gene expression = CREB gene expression by real-time PCR; assay type: cell-based, rat; settings: 25 µM, 24 or 48 h
Procedure: Total RNA was extracted using an ABI 6100 Nucleic Acid PrepStation according to the manufacturer’s protocol (Applied Biosystems Inc., Foster City, CA, USA). Total RNA from cells was isolated and stored at −80 °C. The quality of isolated RNA was estimated by the ratio A260/A280 and was in the range of 1.9–2.1. RNA integrity was evaluated by agarose gel electrophoresis according to MIQE guidelines using the “bleach gel” method. RNA concentrations were determined from the A260. One microgram of total RNA was reverse transcribed using Applied Biosystems High-Capacity cDNA Archive Kit.
To assess relative gene expression in neurons, quantitative real-time RT-PCR analysis was performed with an Applied Biosystems Prism 7500 Fast Sequence Detection System using TaqMan® universal PCR master mix according to the manufacturer’s specifications. […] Levels of RNA expression were determined using the 7500 Fast System SDS software version 1.3.1 (Applied Biosystems) according to the 2^−ΔΔCt method. […] The results from three independent repeat assays, performed in different plates each using different cDNA’s from the cultures analyzed, were averaged to produce a single mean quantity value for each mRNA.

A2AR = target: T1, A2AR (Rattus norvegicus, UniProt P30543); assay: A2AR-mediated AC stimulation (CGS 21680); assay type: cell-based; settings: 25 µM, 24 h; 1 µM CGS 21680
T1 construct: endogenous in cells; host or cells: rat primary cortical neurons (intact)
T1 sequence (P30543 whole entry): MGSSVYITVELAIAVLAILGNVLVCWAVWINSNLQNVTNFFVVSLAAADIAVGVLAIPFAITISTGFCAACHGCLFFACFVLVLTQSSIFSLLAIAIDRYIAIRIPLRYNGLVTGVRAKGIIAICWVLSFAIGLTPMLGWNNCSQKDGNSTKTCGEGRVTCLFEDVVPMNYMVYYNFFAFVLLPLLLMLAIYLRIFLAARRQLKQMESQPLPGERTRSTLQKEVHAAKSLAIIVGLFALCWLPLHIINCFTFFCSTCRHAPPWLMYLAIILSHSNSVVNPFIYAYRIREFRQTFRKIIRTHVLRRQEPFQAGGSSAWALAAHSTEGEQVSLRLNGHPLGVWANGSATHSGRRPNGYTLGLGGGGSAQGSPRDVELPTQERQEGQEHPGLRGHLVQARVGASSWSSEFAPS
Procedure: AC activity was determined as previously reported by Murphy with minor modifications. Briefly, control or treated cells were pre-incubated in serum-free DMEM buffered with 20 mM HEPES, pH 7.4, supplemented with 100 µM Ro 20-1724 and 2 U/mL ADA, for 10 min at 37 °C. AC activity was stimulated using specific ligands for 15 min at 37 °C in a final volume of 250 µL. The reaction was stopped by adding 500 µL 0.1 M HCl in absolute ethanol. Once centrifuged at 12,000× g for 10 min, supernatants were evaporated in speed-vac and resuspended in 150 µL assay buffer (50 mM Tris-HCl, 4 mM EDTA). Fifty microliters of the sample were used to determine cAMP accumulation using protein kinase A as a cAMP binding protein and [^3H]cAMP as radioligand. A cAMP standard curve (0–16 pmol) was prepared in the same buffer. Incubation was stopped by rapid filtration through Whatman GF/B filters.

rat cortical neurons = assay: MTT reduction cell viability assay after Aβ exposure; assay type: cell-based; settings: for decrease in cell viability: MTT reduction, vs control
Procedure: Aβ25-35 and Aβ1-42 were water-soluble peptides, however, while Aβ25-35, the functional domain of Aβ required for both neurotrophic and neurotoxic effects, was directly added to neuronal cultures after its solubilisation, Aβ1-42 was solved in water and maintained for 24 h at 37 °C before its addition to promote its aggregation. To test the effect of mGluR ligands on cell death induced by Aβ in neuronal cultures, these drugs were added 30 min before the addition of Aβ25-35 and maintained during Aβ exposure. Unless otherwise indicated, all chemicals were dissolved in water.
Cell viability was determined on 96-well plates using an in vitro toxicology assay kit based on a mitochondrial-dependent reaction that transforms 3-[4,5-dimetylthiazol-2-yl]-2,5-diphenyltetrazolium bromide (MTT) into formazan crystals. Briefly, at the end of treatments, cells were incubated in culture medium with MTT solution (5 mg/mL) at 37 °C for 3 h. After incubation, MTT solubilization solution (10% Triton X-100 plus 0.1 M HCl in isopropanol anhydrous) was added into the wells to dissolve formazan crystals and the absorbance of each well was measured at 570 nm and 690 nm, according to the manufacturer’s instructions.

A2AR-mediated stimulation of AC activity (A2AR): did not alter
Sequence: GSNKGAIIGLM [Aβ25-35]
CREB gene expression (CREB gene expression): decrease | decrease in cell viability (rat cortical neurons; 25 µM, 24 h): ~40% | cell viability (rat cortical neurons; 25 µM, 48 h, MTT): decrease in cell viability | decrease in cell viability (rat cortical neurons; 50 µM, 24 h): ~40% | cell viability, concentration dependence (rat cortical neurons; 1, 10, 25 and 50 µM, 24 h, MTT): concentration-dependent decrease in cell viability
